Assay results published in the NIST ThermoML archive (doi:10.1021/je9002515).
± gives the expanded uncertainty stated by the source.

Experiment: xn = mol fraction of the nth substance listed
Details: 101 kPa, Liquid, Alternating current cell with electrodes

With `CNC(C)=O` [N-methylacetamide] + CC(=O)N(C)C the electrical conductivity (303.15 K, x1 = 0.1041) was 0.0107 ± 0.0017 S/m, the electrical conductivity (303.15 K, x1 = 0.2077) was 0.0173 ± 0.0028 S/m and the electrical conductivity (303.15 K, x1 = 0.3056) was 0.0162 ± 0.0026 S/m. The electrical conductivity (303.15 K, x1 = 0.4019) was 0.0203 ± 0.0032 S/m, the electrical conductivity (303.15 K, x1 = 0.506) was 0.0239 ± 0.0038 S/m and the electrical conductivity (303.15 K, x1 = 0.6088) was 0.0215 ± 0.0034 S/m. It also gave an electrical conductivity (303.15 K, x1 = 0.6985) of 0.0328 ± 0.0052 S/m, an electrical conductivity (303.15 K, x1 = 0.7974) of 0.0314 ± 0.005 S/m and an electrical conductivity (303.15 K, x1 = 0.9001) of 0.0329 ± 0.0053 S/m. The electrical conductivity (303.15 K, x1 = 1) was 0.0324 ± 0.0052 S/m, the electrical conductivity (313.15 K, x1 = 0.1041) was 0.0131 ± 0.0021 S/m and the electrical conductivity (313.15 K, x1 = 0.2077) was 0.0201 ± 0.0032 S/m. The electrical conductivity (313.15 K, x1 = 0.3056) was 0.0192 ± 0.0031 S/m, the electrical conductivity (313.15 K, x1 = 0.4019) was 0.0241 ± 0.0039 S/m and the electrical conductivity (313.15 K, x1 = 0.506) was 0.0287 ± 0.0046 S/m. It also gave an electrical conductivity (313.15 K, x1 = 0.6088) of 0.0262 ± 0.0042 S/m, an electrical conductivity (313.15 K, x1 = 0.6985) of 0.04 ± 0.0064 S/m and an electrical conductivity (313.15 K, x1 = 0.7974) of 0.039 ± 0.0062 S/m. It also gave an electrical conductivity (313.15 K, x1 = 0.9001) of 0.0421 ± 0.0067 S/m, an electrical conductivity (313.15 K, x1 = 1) of 0.0447 ± 0.0072 S/m and an electrical conductivity (323.15 K, x1 = 0.1041) of 0.0151 ± 0.0024 S/m. The electrical conductivity (323.15 K, x1 = 0.2077) was 0.023 ± 0.0037 S/m, the electrical conductivity (323.15 K, x1 = 0.3056) was 0.0229 ± 0.0037 S/m and the electrical conductivity (323.15 K, x1 = 0.4019) was 0.0285 ± 0.0046 S/m. It also gave an electrical conductivity (323.15 K, x1 = 0.506) of 0.034 ± 0.0054 S/m, an electrical conductivity (323.15 K, x1 = 0.6088) of 0.0315 ± 0.005 S/m and an electrical conductivity (323.15 K, x1 = 0.6985) of 0.0485 ± 0.0078 S/m. The electrical conductivity (323.15 K, x1 = 0.7974) was 0.0477 ± 0.0076 S/m, the electrical conductivity (323.15 K, x1 = 0.9001) was 0.0528 ± 0.0084 S/m and the electrical conductivity (323.15 K, x1 = 1) was 0.0614 ± 0.0098 S/m. For the same compound, the electrical conductivity (333.15 K, x1 = 0.1041) was 0.0175 ± 0.0028 S/m, the electrical conductivity (333.15 K, x1 = 0.2077) was 0.0261 ± 0.0042 S/m and the electrical conductivity (333.15 K, x1 = 0.3056) was 0.0273 ± 0.0044 S/m. The electrical conductivity (333.15 K, x1 = 0.4019) was 0.0335 ± 0.0054 S/m, the electrical conductivity (333.15 K, x1 = 0.506) was 0.0397 ± 0.0063 S/m and the electrical conductivity (333.15 K, x1 = 0.6088) was 0.0373 ± 0.006 S/m. The electrical conductivity (333.15 K, x1 = 0.6985) was 0.0584 ± 0.0093 S/m, the electrical conductivity (333.15 K, x1 = 0.7974) was 0.0571 ± 0.0091 S/m and the electrical conductivity (333.15 K, x1 = 0.9001) was 0.0645 ± 0.01 S/m. For the same compound, the electrical conductivity (333.15 K, x1 = 1) was 0.0775 ± 0.012 S/m, the electrical conductivity (343.15 K, x1 = 0.1041) was 0.0202 ± 0.0032 S/m and the electrical conductivity (343.15 K, x1 = 0.2077) was 0.0299 ± 0.0048 S/m. The electrical conductivity (343.15 K, x1 = 0.3056) was 0.0331 ± 0.0053 S/m, the electrical conductivity (343.15 K, x1 = 0.4019) was 0.0394 ± 0.0063 S/m and the electrical conductivity (343.15 K, x1 = 0.506) was 0.0459 ± 0.0073 S/m. It also gave an electrical conductivity (343.15 K, x1 = 0.6088) of 0.0436 ± 0.007 S/m, an electrical conductivity (343.15 K, x1 = 0.6985) of 0.0688 ± 0.011 S/m and an electrical conductivity (343.15 K, x1 = 0.7974) of 0.0666 ± 0.011 S/m. It also gave an electrical conductivity (343.15 K, x1 = 0.9001) of 0.0778 ± 0.012 S/m, an electrical conductivity (343.15 K, x1 = 1) of 0.105 ± 0.017 S/m and an electrical conductivity (353.15 K, x1 = 0.1041) of 0.0234 ± 0.0037 S/m. It also gave an electrical conductivity (353.15 K, x1 = 0.2077) of 0.0349 ± 0.0056 S/m, an electrical conductivity (353.15 K, x1 = 0.3056) of 0.0403 ± 0.0064 S/m and an electrical conductivity (353.15 K, x1 = 0.4019) of 0.0464 ± 0.0074 S/m. For the same compound, the electrical conductivity (353.15 K, x1 = 0.506) was 0.0532 ± 0.0085 S/m, the electrical conductivity (353.15 K, x1 = 0.6088) was 0.051 ± 0.0081 S/m and the electrical conductivity (353.15 K, x1 = 0.6985) was 0.0798 ± 0.013 S/m. It also gave an electrical conductivity (353.15 K, x1 = 0.7974) of 0.076 ± 0.012 S/m, an electrical conductivity (353.15 K, x1 = 0.9001) of 0.0929 ± 0.015 S/m and an electrical conductivity (353.15 K, x1 = 1) of 0.129 ± 0.021 S/m. It also gave an electrical conductivity (363.15 K, x1 = 0.1041) of 0.0269 ± 0.0043 S/m, an electrical conductivity (363.15 K, x1 = 0.2077) of 0.0413 ± 0.0066 S/m and an electrical conductivity (363.15 K, x1 = 0.3056) of 0.0495 ± 0.0079 S/m. For the same compound, the electrical conductivity (363.15 K, x1 = 0.4019) was 0.0548 ± 0.0088 S/m, the electrical conductivity (363.15 K, x1 = 0.506) was 0.0619 ± 0.0099 S/m and the electrical conductivity (363.15 K, x1 = 0.6088) was 0.0597 ± 0.0096 S/m. For the same compound, the electrical conductivity (363.15 K, x1 = 0.6985) was 0.0922 ± 0.015 S/m, the electrical conductivity (363.15 K, x1 = 0.7974) was 0.0854 ± 0.014 S/m and the electrical conductivity (363.15 K, x1 = 0.9001) was 0.11 ± 0.018 S/m. For the same compound, the electrical conductivity (363.15 K, x1 = 1) was 0.165 ± 0.026 S/m, the electrical conductivity (373.15 K, x1 = 0.1041) was 0.0305 ± 0.0049 S/m and the electrical conductivity (373.15 K, x1 = 0.2077) was 0.049 ± 0.0078 S/m. The electrical conductivity (373.15 K, x1 = 0.3056) was 0.06 ± 0.0096 S/m, the electrical conductivity (373.15 K, x1 = 0.4019) was 0.0646 ± 0.01 S/m and the electrical conductivity (373.15 K, x1 = 0.506) was 0.0714 ± 0.011 S/m. For the same compound, the electrical conductivity (373.15 K, x1 = 0.6088) was 0.0702 ± 0.011 S/m, the electrical conductivity (373.15 K, x1 = 0.6985) was 0.106 ± 0.017 S/m and the electrical conductivity (373.15 K, x1 = 0.7974) was 0.0948 ± 0.015 S/m. It also gave an electrical conductivity (373.15 K, x1 = 0.9001) of 0.127 ± 0.02 S/m, an electrical conductivity (373.15 K, x1 = 1) of 0.192 ± 0.031 S/m and an electrical conductivity (383.15 K, x1 = 0.1041) of 0.0344 ± 0.0055 S/m. The electrical conductivity (383.15 K, x1 = 0.2077) was 0.0567 ± 0.0091 S/m, the electrical conductivity (383.15 K, x1 = 0.3056) was 0.0708 ± 0.011 S/m and the electrical conductivity (383.15 K, x1 = 0.4019) was 0.075 ± 0.012 S/m. For the same compound, the electrical conductivity (383.15 K, x1 = 0.506) was 0.0813 ± 0.013 S/m, the electrical conductivity (383.15 K, x1 = 0.6088) was 0.0816 ± 0.013 S/m and the electrical conductivity (383.15 K, x1 = 0.6985) was 0.119 ± 0.019 S/m. For the same compound, the electrical conductivity (383.15 K, x1 = 0.7974) was 0.105 ± 0.017 S/m, the electrical conductivity (383.15 K, x1 = 0.9001) was 0.146 ± 0.023 S/m and the electrical conductivity (383.15 K, x1 = 1) was 0.219 ± 0.035 S/m. The electrical conductivity (393.15 K, x1 = 0.1041) was 0.0396 ± 0.0063 S/m, the electrical conductivity (393.15 K, x1 = 0.2077) was 0.0641 ± 0.01 S/m and the electrical conductivity (393.15 K, x1 = 0.3056) was 0.081 ± 0.013 S/m. The electrical conductivity (393.15 K, x1 = 0.4019) was 0.0851 ± 0.014 S/m, the electrical conductivity (393.15 K, x1 = 0.506) was 0.0907 ± 0.015 S/m and the electrical conductivity (393.15 K, x1 = 0.6088) was 0.0934 ± 0.015 S/m. It also gave an electrical conductivity (393.15 K, x1 = 0.6985) of 0.131 ± 0.021 S/m, an electrical conductivity (393.15 K, x1 = 0.7974) of 0.118 ± 0.019 S/m and an electrical conductivity (393.15 K, x1 = 0.9001) of 0.167 ± 0.027 S/m. For the same compound, the electrical conductivity (393.15 K, x1 = 1) was 0.247 ± 0.04 S/m.
